Values quoted from earlier work, collected in US20140205688A1, “STIMULATING AGENT AND STIMULATING COMPOSITION” (priority 2011, published 2014).

System: humans
Details: humans took in / absorbed the substance

| Compound | amplitude of CNV |
| --- | --- |
| O=C1CN=C(c2ccccc2)c2cc([N+](=O)[O-])ccc2N1 [Nitrazepam] | declined |
| Cn1c(=O)c2c(ncn2C)n(C)c1=O [caffeine] | increased |
